From US8168667B2 (Galapagos NV, priority 2006, dated 2012)
Read-outs that look alike come from different tables or passages of the source.

Target: T1, human androgen receptor (hAR) (Homo sapiens, UniProt P10275)
T1 sequence (P10275 1-920): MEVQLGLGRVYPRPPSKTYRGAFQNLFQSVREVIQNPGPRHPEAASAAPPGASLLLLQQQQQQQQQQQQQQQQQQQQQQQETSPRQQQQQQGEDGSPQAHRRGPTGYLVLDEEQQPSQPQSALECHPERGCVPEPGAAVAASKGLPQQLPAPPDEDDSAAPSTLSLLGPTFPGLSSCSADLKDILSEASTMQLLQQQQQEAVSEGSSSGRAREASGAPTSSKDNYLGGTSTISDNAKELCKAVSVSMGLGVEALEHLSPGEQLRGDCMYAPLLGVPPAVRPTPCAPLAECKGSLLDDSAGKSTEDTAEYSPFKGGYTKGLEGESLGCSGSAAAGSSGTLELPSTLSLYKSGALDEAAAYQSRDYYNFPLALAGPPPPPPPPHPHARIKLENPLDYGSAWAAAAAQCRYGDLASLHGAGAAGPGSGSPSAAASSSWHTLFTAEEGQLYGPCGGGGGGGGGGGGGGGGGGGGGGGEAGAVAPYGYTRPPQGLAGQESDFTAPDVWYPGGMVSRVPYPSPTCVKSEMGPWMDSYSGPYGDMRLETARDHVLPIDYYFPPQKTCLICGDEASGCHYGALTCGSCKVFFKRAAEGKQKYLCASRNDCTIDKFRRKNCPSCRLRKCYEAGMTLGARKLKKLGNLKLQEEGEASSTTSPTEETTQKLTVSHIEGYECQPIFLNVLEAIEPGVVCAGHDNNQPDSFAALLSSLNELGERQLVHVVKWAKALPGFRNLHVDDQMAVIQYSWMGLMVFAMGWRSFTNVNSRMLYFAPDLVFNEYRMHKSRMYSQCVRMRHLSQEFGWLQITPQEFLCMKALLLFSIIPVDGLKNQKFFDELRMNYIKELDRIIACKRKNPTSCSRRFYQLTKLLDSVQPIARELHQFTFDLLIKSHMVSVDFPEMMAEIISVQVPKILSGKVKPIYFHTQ
Assay: Functional response test: hAR transactivation (luciferase reporter) in HALP2 cells
Assay type: cell-based
Conditions: for EC50: agonism, HALP2 cells (HeLa, hAR + ARE-luciferase), 20 hours at 37° C.
Outline: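 HALP2 cells are HeLa cells stably transfected with CMV-driven hAR and a probasin ARE-luciferase reporter. They were seeded 24 h ahead, then exposed to compounds for 20 hours at 37° C in phenol red-free DMEM with 5% desteroided serum. Luciferase luminescence was measured after lysis; for antagonist mode, compounds were tested against increasing DHT concentrations.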

[1] = antagonism, concentration which increases the EC50 of the DHT by a factor of 2, Schild regression, HALP2 cells

EC50 [nM] | KSchild (nM) potency [1] [nM] | SMILES | KSchild (nM) potency [nM]
 |  | CC1(c2ccc(O)cc2)C(=O)N(c2ccc(C#N)c(C(F)(F)F)c2)C(=O)N1CC#CCO (centres unmarked) [Example 243, 4-[2,5-dioxo-3-(4-hydroxy-2-butynyl)-4-(4-hydroxyphenyl)-4-methylimidazolidinyl-1-yl]-2-trifluoromethylbenzonitrile] | 4.56
 |  | Cc1cc(O)ccc1C1(C)C(=O)N(c2ccc(C#N)c(C(F)(F)F)c2)C(=O)N1C (centres unmarked) [Example 180, 4-[3,4-dimethyl-2,5-dioxo-4-(4-hydroxy-2-methylphenyl)imidazolidin-1-yl]-2-trifluoromethylbenzonitrile] | 8
 |  | COC(=O)CN1C(=O)N(c2ccc(C#N)c(C(F)(F)F)c2)C(=O)C1(C)c1ccc(O)cc1 (centres unmarked) [Example 227, 4-[2,5-dioxo-4-(4-hydroxyphenyl)-3-[(methoxycarbonyl)methyl]-4-methylimidazolidin-1-yl]-2-trifluoromethylbenzonitrile] | 3.46
12.3 | 12.25 | CC(=O)OCC#CCN1C(=O)N(c2ccc(Cl)c(Cl)c2)C(=O)C1(C)c1ccc(O)cc1 (centres unmarked) [Example 223, 4-[1-(3,4-dichlorophenyl)-2,5-dioxo-4-methyl-4-(4-hydroxyphenyl)imidazolidin-3-yl]-2-butynyl acetate] | 
11.3 | 11.29 | CCOC(=O)CCN1C(=O)N(c2ccc(Cl)c(Cl)c2)C(=O)C1c1ccc(O)cc1 (centres unmarked) [Example 15, Ethyl 3-[1-(3,4-dichlorophenyl)-4-(4-hydroxyphenyl)-2,5-dioxoimidazolidin-3-yl]propionate] | 
77.5 | 77.46 | CCOCCCN1C(=O)N(c2ccc(F)c(C(F)(F)F)c2)C(=O)C1c1ccc(O)cc1 (centres unmarked) [Example 87] | 
 |  | CSCN1C(=O)N(c2ccc(C#N)c(C(F)(F)F)c2)C(=O)C1(C)c1ccc(O)cc1 (centres unmarked) [Example 222.2] | 15
49 | 48.99 | C#CCN1C(=O)N(c2ccc(F)c(F)c2)C(=O)C1c1ccc(O)cc1 (centres unmarked) [Example 67] | 
 |  | O=C1C(c2ccc(O)cc2)N(CCO)C(=O)N1c1ccc(Cl)c(C(F)(F)F)c1 (centres unmarked) [Example 141] | 17.32
77.5 | 77.46 | CN(C)CCN1C(=O)N(c2ccc(Cl)c(C(F)(F)F)c2)C(=O)C1c1ccc(O)cc1 (centres unmarked) [Example 117] | 
54.8 | 34.64 | CCCN1C(=O)N(c2ccc(Cl)c(Cl)c2)C(=O)C1c1ccc(O)cc1 (centres unmarked) [Example 55] | 
 |  | O=C1C(c2ccc(O)cc2)N(Cc2ccsc2)C(=O)N1c1ccc([N+](=O)[O-])cc1 (centres unmarked) [Example 53] | 9.74
693 | 692.82 | N#CCN1C(=O)N(c2cccc(C(F)(F)F)c2)C(=O)C1c1ccc(O)cc1 (centres unmarked) [Example 96] | 
 |  | CN1C(=O)N(c2ccc(C#N)c3ccccc23)C(=O)C1(C)c1ccc(O)cc1 (centres unmarked) [Example 31, 4-[3,4-dimethyl-2,5-dioxo-4-(4-hydroxyphenyl)imidazolidin-1-yl]naphthonitrile] | 800
1500 | 1500 | N#CCN1C(=O)N(c2ccc(F)c(F)c2)C(=O)C1c1ccc(O)cc1 (centres unmarked) [Example 92] | 
245 | 244.95 | N#CCCN1C(=O)N(c2cccc(C(F)(F)F)c2)C(=O)C1c1ccc(O)cc1 (centres unmarked) [Example 128] | 
 |  | CCCN1C(=O)N(c2ccc(Cl)c(C(F)(F)F)c2)C(=O)C1c1ccc(O)cc1 (centres unmarked) [Example 57] | 34.64
 |  | COCCOCN1C(=O)N(c2ccc(C#N)c(C(F)(F)F)c2)C(=O)C1(C)c1ccc(O)cc1 (centres unmarked) [Example 238, 4-[2,5-dioxo-4-(4-hydroxyphenyl)-3-[(2-methoxyethoxy)methyl]-4-methylimidazolidin-1-yl]-2-trifluoromethylbenzonitrile] | 15
600 | 600 | O=C1C(c2ccc(O)cc2)N(CCCCO)C(=O)N1c1ccc(F)c(F)c1 (centres unmarked) [Example 133] | 
